This passage reports IC50 results from patent EP0755931A1, “Dihydropyridine and pyridine derivatives and process for their preparation” (priority 1995, dated 1997).

This assay has as its target T1, human placental aromatase (Homo sapiens, UniProt P11511).
T1 construct: utilizes the human placental microsomal fraction as enzyme source; from tissue; host or cells: human placenta, microsomal fraction
T1 sequence (P11511 1-503): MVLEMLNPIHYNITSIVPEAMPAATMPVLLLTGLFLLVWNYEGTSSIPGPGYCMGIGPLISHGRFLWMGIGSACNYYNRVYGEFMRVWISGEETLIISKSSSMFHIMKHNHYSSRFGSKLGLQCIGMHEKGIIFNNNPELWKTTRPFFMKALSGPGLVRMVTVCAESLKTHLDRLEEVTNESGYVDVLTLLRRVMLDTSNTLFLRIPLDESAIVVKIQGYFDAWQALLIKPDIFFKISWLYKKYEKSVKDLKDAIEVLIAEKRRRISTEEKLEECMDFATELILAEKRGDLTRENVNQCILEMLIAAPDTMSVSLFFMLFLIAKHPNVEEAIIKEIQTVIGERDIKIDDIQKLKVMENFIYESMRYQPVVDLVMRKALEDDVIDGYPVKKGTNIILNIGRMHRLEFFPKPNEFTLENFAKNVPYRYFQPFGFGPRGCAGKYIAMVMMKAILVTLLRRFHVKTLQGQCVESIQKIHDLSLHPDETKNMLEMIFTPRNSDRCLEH
Briefly: Inhibition of human placental aromatase (in vitro test of Thompson and Siiteri, 3H2O release from [1β-3H]androstenedione). The class given is biochemical. The note with it: human placental microsomal fraction as enzyme source; compounds incubated for 15 min at 37°C with 50 nM [1β-3H]androstenedione in the presence of NADPH. How it is done: Estrogens are also involved in the pathogenesis of benign prostatic hyperplasia. Endogenous estrogens are ultimately formed from either androstenedione or testosterone as immediate precursors. The reaction of central importance is the aromatization of the steroidic ring A, which is performed by the enzyme aromatase. […] In this test the aromatization rate of androstenedione into estrone was evaluated by incubating (1β-^3H) androstenedione (50 nM) in the presence of NADPH with the enzyme preparation and by measuring the amount of^3H2O formed during 15 min incubation at 37°C.
What is called IC50 is the concentration needed to halve the response being measured. For `CCOC(=O)C1=C(C)NC(C)=C(C#N)C1c1cccc(-n2ccnc2)c1` (racemic) [FCE 29013, 4-(3-1H-imidazol-1-yl-phenyl)-2,6-dimethyl-1,4-dihydropyridine-3-carbonitrile-5-carboxylic acid ethyl ester], the IC50 worked out at 1.5 nM.
With `Cc1nc(C)c(C#N)c(-c2cccc(-n3ccnc3)c2)c1C#N` [FCE 28717, 4-(3-1H-imidazol-1-yl-phenyl)-2,6-dimethylpyridine-3,5-dicarbonitrile], the IC50 was 12 nM.
As to `CC1=C(C#N)C(c2cccc(-n3ccnc3)c2)C(C#N)=C(C)N1` [FCE 28718, 4-(3-1H-imidazol-1-yl-phenyl)-2,6-dimethyl-1,4-dihydropyridine-3,5-dicarbonitrile], the IC50 was 1.7 nM.
As for `CC1=C(C#N)C(c2cccc(-n3cncn3)c2)C(C#N)=C(C)N1` [FCE 29138, 4-[3-(1,2,4)triazol-1-yl-phenyl]-2,6-dimethyl-1,4-dihydropyridine-3,5-dicarbonitrile], the IC50 is 25 nM.
